# Reference: publication PMC5991393, “Pharmacokinetic properties of a novel inosine analog, 4′-cyano-2′-deoxyinosine, after oral administration in rats” (PLoS ONE, 2018)
# “Also recorded” adds a separate entry of the source.
# Columns and labels:
# [1] = test system: HIV-1M184V; parameters: method as in PMID 15200030; settings: lamivudine-resistant; cited from earlier work
# [2] = Pharmacokinetic study of SK14-061a after oral and intravenous administration in rats; assay type: in vivo; settings: 1 mg/kg
# Protocol: (§1) Rats were fasted for 12 h but with free access to water before dosing. Rats were orally (p.o.) administered a SK14-061a solution at a dose of 1 mg/kg. At stipulated times after the administration (15 min, 45 min, 90 min, 3, 4.5, 6 and 9 hr), venous blood samples were collected from tail vein using a heparinized syringe (0.25ml). The blood samples were centrifuged (3,000 rpm, 10 min) to obtain plasma. Urine samples were collected in a metabolic cage for 9 hr after the administration of the SK14-061a solution. After obtaining the last blood sample, all rats were sacrificed and kidneys and liver collected. To determine the time-dependent tissue distribution of SK14-061a, rats were sacrificed and organs (kidneys and liver) were collected at 1 and 3 hr after the oral administration of SK14-061a at a dose of 1 mg/kg. To calculate bioavailability, plasma concentrations of SK14-061a after intravenous administration (1 mg/kg) were also obtained at 3 min, 15 min, 30 min, 1, 3, 6 and 9 hr. Before the LC-MS analysis, plasma samples that were collected for pharmacokinetic studies were treated in the same manner as described in the "Validation assays" section. A portion of the liver and kidney tissues (about 500 mg) were homogenized in water (1 mL). The homogenized samples were subsequently ultracentrifuged at 100,000 g for 1 hr, and the supernatant collected. Urine samples were centrifuged (3,000 rpm, 10 min) and the supernatants were used in the analyses. All samples derived from organs and urine were processed using a Waters Oasis MCX 96 well plate in the same manner as was used for the plasma samples before the LC-MS analysis. All data are expressed as the mean ± S.D. Statistical analyses for multiple comparisons were determined by an analysis of variance (two-way ANOVA) using the Bonferroni correction for multiple comparisons. A probability value of p < 0.05 was considered to be significant. A non-compartment model was used for the pharmacokinetic analysis. Parameters were calculated using the program of a moment analysis developed by Tabata et al. Half-life (t1/2) were calculated from the elimination phase. Area under the concentration-time curve (AUC) were calculated using the following equations: AUC=∫0∞Cdt
# [3] = Clinical chemistry (liver and kidney toxicity) after oral SK14-061a; assay type: in vivo, Sprague-Dawley rats; settings: p.o., 1 mg/kg, 9 hr after administration
# Protocol: Sprague-Dawley rats (male, 230–270 g) were purchased from the Kyudo Co., Ltd. (Saga, Japan). All animals were maintained under conventional housing conditions, with food and water ad libitum in a temperature-controlled room with a 12 hr dark/light cycle. Maintenance of the animals and the experimental procedures performed on them were carried out in accordance with NIH guidelines. All animal experiments were reviewed and approved by the Animal Care and Use committee of Sojo University (Permit #: 2015-P-020). Eight rats were divided into two group: non-treatment group as a control (n = 4) and SK14-061a-treated group (p.o., 1 mg/kg, n = 4). […] The blood samples were centrifuged (3,000 g, 5 min) to obtain plasma for analysis of aspartate aminotransferase (AST), alanine aminotransferase (ALT), urea nitrogen (BUN) and creatinine. All plasma samples were stored at -80 °C prior to analysis by a commercial clinical testing laboratory (Oriental Yeast Co., Tokyo, Japan).
# [4] = Pharmacokinetic study of oral co-administration of SK14-061a and ETV in rats; assay type: in vivo
# Protocol: At stipulated times after the administration (15 min, 45 min, 90 min, 3, 6 and 9 hr), venous blood samples were collected by means of a heparinized syringe (0.25ml). The blood samples were centrifuged (3,000 rpm, 10 min) to obtain plasma. […] All data are expressed as the mean ± S.D. Statistical analyses for multiple comparisons were determined by an analysis of variance (two-way ANOVA) using the Bonferroni correction for multiple comparisons. A probability value of p < 0.05 was considered to be significant. A non-compartment model was used for the pharmacokinetic analysis. Parameters were calculated using the program of a moment analysis developed by Tabata et al. Half-life (t1/2) were calculated from the elimination phase. Area under the concentration-time curve (AUC) were calculated using the following equations: AUC=∫0∞Cdt
# [5] = Tissue distribution to liver and kidney after oral administration; assay type: in vivo; settings: rats, p.o., 1 mg/kg
# Protocol: as §1, with “analysis.” for “analysis. All data are expressed as the mean ± S.D. Statistical analyses for multiple comparisons were determined by an analysis of variance (two-way ANOVA) using the Bonferroni correction for multiple comparisons. A probability value of p < 0.05 was considered to be significant. A non-compartment model was used for the pharmacokinetic analysis. Parameters were calculated using the program of a moment analysis developed by Tabata et al. Half-life (t1/2) were calculated from the elimination phase. Area under the concentration-time curve (AUC) were calculated using the following equations: AUC=∫0∞Cdt”
# [6] = target: T1, Human serum albumin (HSA) (Homo sapiens, UniProt P02768); experiment: Protein binding by ultrafiltration, HSA; assay type: in vitro ADME; settings: 600 μM HSA, 500 ng/mL
# T1 construct: purchased Sigma-Aldrich (Tokyo, Japan)
# T1 sequence (P02768 25-609): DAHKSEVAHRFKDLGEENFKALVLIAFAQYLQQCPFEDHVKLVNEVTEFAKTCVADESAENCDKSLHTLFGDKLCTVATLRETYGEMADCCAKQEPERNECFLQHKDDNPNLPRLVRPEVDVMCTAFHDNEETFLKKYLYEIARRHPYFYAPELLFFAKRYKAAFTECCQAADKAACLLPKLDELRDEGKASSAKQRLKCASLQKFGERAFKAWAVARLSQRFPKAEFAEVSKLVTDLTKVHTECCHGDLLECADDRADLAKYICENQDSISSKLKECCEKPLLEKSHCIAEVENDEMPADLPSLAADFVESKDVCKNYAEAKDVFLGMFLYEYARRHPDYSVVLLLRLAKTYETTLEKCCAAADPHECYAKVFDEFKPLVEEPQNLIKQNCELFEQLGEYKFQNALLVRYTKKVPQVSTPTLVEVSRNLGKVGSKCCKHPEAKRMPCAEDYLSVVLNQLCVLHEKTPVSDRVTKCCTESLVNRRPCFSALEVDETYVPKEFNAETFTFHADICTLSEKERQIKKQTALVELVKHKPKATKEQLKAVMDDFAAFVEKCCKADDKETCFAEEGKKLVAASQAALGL
# Protocol: (§2) Protein binding assays were performed following a previous reported procedure, with minor modifications. In short, pooled human plasma, 600 μM HSA and 45 μM AGP were spiked with an aqueous solution of SK14-061a to produce a final SK14-061a concentration of 500 ng/mL, respectively. The unbound drug fraction was determined by ultrafiltration. Ultrafiltration was carried out using an Amicon® Ultra-0.5 mL centrifugal filter unit with an Ultracel®-30 membrane (Merck Millipore Company, MA). Samples of 500 μL were centrifuged at 14,000 g for 10 min. The SK14-061a concentration were determined by LC-MS without the SPE method.
# [7] = Urinary excretion of unchanged SK14-061a after oral administration; assay type: in vivo, rats
# Protocol: as §1, with “Urine samples were collected in a metabolic cage for 9 hr after the administration of the SK14-061a solution.” left out, “analysis.” for “analysis. All data are expressed as the mean ± S.D. Statistical analyses for multiple comparisons were determined by an analysis of variance (two-way ANOVA) using the Bonferroni correction for multiple comparisons. A probability value of p < 0.05 was considered to be significant. A non-compartment model was used for the pharmacokinetic analysis. Parameters were calculated using the program of a moment analysis developed by Tabata et al. Half-life (t1/2) were calculated from the elimination phase. Area under the concentration-time curve (AUC) were calculated using the following equations: AUC=∫0∞Cdt”
# [8] = test system: HIV-1MDR; parameters: method as in PMID 15200030; settings: clone with Ala62Val, Val75Leu, Phe77Leu, Phe116Tyr, Gln115Met; cited from earlier work
# [9] = test system: human α1-acid glycoprotein (AGP); experiment: Protein binding by ultrafiltration, AGP; assay type: in vitro ADME; settings: 45 μM AGP, 500 ng/mL
# Protocol: as §2
# [10] = Protein binding by ultrafiltration, pooled human plasma; assay type: in vitro ADME; settings: read-out: protein binding rate in human pooled plasma (converted)
# Protocol: as §2
# [11] = Metabolism assay in vitro with rat liver microsomes; assay type: in vitro ADME; settings: 100 ng/ml, 0.2 mg/ml rat liver microsomal protein, 60 min, 37°C
# Protocol: SK14-061a (100 ng/ml) was incubated with the incubation mixtures (0.1 M potassium phosphate buffer (pH 7.4), 10 mM MgCl2, 1 mM EDTA, 1 mM NADP+, 10 mM glucose-6-phosphate, 10 units/ml glucose-6-phosphate dehydrogenase, and 0.2 mg/ml of rat liver microsomal protein). After a 5 min pre-incubation of the incubation mixture at 37°C, the metabolic reactions were initiated by the addition of SK14-061a. After 60 min, the SK14-061a was extracted from the incubation samples using the SPE method, and the SK14-061a concentration determined by LC-MS.
# [12] = test system: wild-type HBV; parameters: method as in PMID 26122273; settings: cited from earlier work
# [13] = test system: HBVA181T/N236T; parameters: method as in PMID 26122273; settings: adefovir dipivoxil-resistant variant; cited from earlier work
# [14] = test system: HBVL180M/S202G/M204V; parameters: method as in PMID 26122273; settings: entecavir-resistant variant; cited from earlier work
# [15] = rat, plasma, po, 1 mg/kg, read-out: AUC
# [16] = rat, plasma, po, 1 mg/kg, read-out: CL/F (converted)
# [17] = rat, plasma, po, 1 mg/kg, read-out: Cmax
# [18] = rat, plasma, po, 1 mg/kg, read-out: MRT
# [19] = rat, plasma, po, 1 mg/kg, read-out: tmax
# [20] = rats, p.o., 1 mg/kg, 9 hr after oral administration
# [21] = rats, p.o., ETV 1 mg/kg alone (SK14-061a (-))
compound,measurement,setting,value
"N#C[C@]1(CO)O[C@@H](n2cnc3c(O)ncnc32)C[C@@H]1O [SK14-061a, 4′-cyano-2′-deoxyinosine]",activity against HIV-1M184V,[1],potent activity; also recorded: highly active
same,half-life,"[2]; rat, plasma, iv, rats",3.01 ± 1.48 h
same,AUC,"[2]; rat, plasma, iv, rats, i.v., read-out: AUC",0.475 ± 0.0822 µg·h/mL
same,Cmax,"[2]; rat, plasma, iv, rats",0.431 ± 0.0363 µg/mL
same,MRT,"[2]; rat, plasma, iv, rats",3.58 ± 1.86 h
same,clearance,"[2]; rat, plasma, iv, rats",2.08 L/h/kg
same,bioavailability,"[2]; rat, plasma, oral, rats, p.o. vs i.v., read-out: F (bioavailability)",~65%
same,CL/F,"[2]; rat, plasma, po",3.32 L/h/kg
same,Cmax,"[2]; rat, plasma, po",0.0488 ± 0.0118 µg/mL
same,MRT,"[2]; rat, plasma, po",5.47 ± 1.52 h
same,half-life,"[2]; rat, plasma, po, rats, alone (ETV (-))",~3.6 h
same,AUC,"[2]; rat, plasma, po, rats, p.o., alone (ETV (-)), read-out: AUC",0.307 ± 0.0497 µg·h/mL
same,Tmax,"[2]; rat, plasma, po, rats, p.o., alone (ETV (-)), read-out: tmax",1.3 h
same,MAT (mean absorption time),"[2]; rats, p.o. vs i.v.",1.89 h
same,AUC,"[2]; rats, p.o., alone (ETV (-))",0.308 ± 0.0497 µg·h/mL
same,Tmax,"[2]; rats, p.o., alone (ETV (-))",1.29 ± 0.34 h
same,change of alanine aminotransferase (ALT) vs control rats,[3],no significant changes
same,change of aspartate aminotransferase (AST) vs control rats,[3],no significant changes
same,change of blood urea nitrogen (BUN) vs control rats,[3],no significant changes
same,change of creatinine vs control rats,[3],no significant changes
same,half-life,"[4]; rat, plasma, po, 1 mg/kg",4.07 ± 2.2 h
same,AUC,[4]; [15],0.972 ± 0.185 µg·h/mL
same,CL/F,[4]; [16],1.06 L/h/kg
same,Cmax,[4]; [17],0.165 ± 0.0466 µg/mL
same,MRT,[4]; [18],3.14 ± 2.16 h
same,Tmax,[4]; [19],1.07 ± 0.4 h
same,distribution to liver compared with kidney,[5],distributed at higher levels to the liver than the kidney
same,time of maximum distribution in the kidney,"[5]; sampled at 1, 3 and 9 hr",1 h
same,time of maximum distribution in the liver,"[5]; sampled at 1, 3 and 9 hr",1 h
same,binding rate to HSA,[6],about 14.7 ± 0.03%
same,SK14-061a accumulated in the urine as share of the administered dose,"[7]; during 72 hr after oral administration, authors' other study",about 45%
same,dose excreted,"[7]; rat, urine, po, rats, p.o., 1 mg/kg, 9 hr, taken together with bioavailability (approximately 65%), read-out: recovery of SK14-061a in urine taking bioavailability into account",~30%
same,amount of unchanged SK14-061a accumulated in the urine,[7]; [20],about 46 ± 17 μg
same,unchanged SK14-061a in urine as share of the administered dose,[7]; [20],about 20%
same,activity against HIV-1MDR,[8],potent activity
same,binding rate to AGP,[9],about 22.1 ± 0.01%
same,fraction unbound at 500 ng/mL,[10],~0.363
same,non-metabolized form detected after incubation with rat microsomes,[11],73.7 ± 10.7%
N#C[C@]1(CO)O[C@@H](n2cnc3c(=O)[nH]c(N)nc32)C[C@@H]1O [4′-CN-2′-deoxyguanosine],activity against wild-type HBV,[12],highly active
same,activity against HBVA181T/N236T,[13],highly active
same,activity against HBVL180M/S202G/M204V,[14],highly active
"C=C1[C@H](CO)[C@@H](O)C[C@@H]1n1cnc2c(=O)[nH]c(N)nc21 [ETV, entecavir]",half-life,"[4]; rat, plasma, po, 1 mg/kg",1.98 ± 0.51 h
same,AUC,[4]; [15],0.492 ± 0.0315 µg·h/mL
same,CL/F,[4]; [16],2.04 L/h/kg
same,Cmax,[4]; [17],0.135 ± 0.0274 µg/mL
same,MRT,[4]; [18],3.24 ± 0.68 h
same,Tmax,[4]; [19],1.25 ± 0.43 h
same,AUC,[4]; [21],0.261 ± 0.0162 µg·h/mL
same,CL/F,[4]; [21],3.85 ± 0.25 L/h/kg
same,Cmax,[4]; [21],0.147 ± 0.00582 µg/mL
same,MRT,[4]; [21],1.35 ± 0.03 h
same,Tmax,[4]; [21],0.75 h
same,t1/2,[4]; [21],0.72 ± 0.05 h
